Assay results as given in patent US9944969B2, “Devices, systems and methods for detecting viable infectious agents in a fluid sample” (eSense, LLC, priority 2015, dated 2018).

Legend:
[1] = system: Staphylococcus saprophyticus; test: pH change of sample effluent after exposure of Staphylococcus saprophyticus to anti-infective (ISFET sensor system, FIG. 10); format: cell-based; settings: Staphylococcus saprophyticus from fluid sample; pH of sample effluent 60 minutes after exposure
From the text: In these examples, Staphylococcus saprophyticus can be one of the infectious agents 102 present in the fluid sample 124 applied or introduced to the system 100.

E. coli = test: pH change of sample effluent after exposure of E. coli to anti-infective (ISFET sensor system, FIG. 9); format: cell-based; settings: for concentration of anti-infective to which the E. coli is resistant (change in pH): E. coli from fluid sample, pH of sample effluent 60 minutes after exposure
From the text: FIG. 9 illustrates experimental results of experiments conducted using the methods and system 100 described herein. The graphs in FIG. 9 show a change in the solution characteristic 136 of the measured liquid 402, such as the sample effluent 134, monitored by the system 100 at a specific point in time. In this case, the graphs in FIG. 9 show the change in the solution characteristic 136 of the measured liquid 402 sixty (60) minutes after an anti-infective 104 is introduced to the filter 110, the substrate wells 200, or a combination thereof comprising the infectious agent 102.
In this example, E. coli can be one of the infectious agents 102 present in the fluid sample 124 applied or introduced to the system 100. […] An insignificant change in the solution characteristic 136 can be a change below a statistically significant percentage or threshold value.

O=C1CN(/N=C/c2ccc([N+](=O)[O-])o2)C(=O)N1 [nitrofurantoin]
concentration of anti-infective at which the Staphylococcus saprophyticus is susceptible [1]: higher than 1 μg/ml | concentration of anti-infective to which the Staphylococcus saprophyticus is resistant (change in pH) [1]: approximately 1 μg/ml | concentration of anti-infective to which the E. coli is resistant (change in pH) (E. coli): approximately 1 μg/ml | MIC (E. coli; Escherichia coli, 1 h, read-out: minimal inhibitory concentration (MIC)): 1 µg/mL

O=C(O)c1cn(C2CC2)c2cc(N3CCNCC3)c(F)cc2c1=O [ciprofloxacin]
concentration of anti-infective to which the E. coli is resistant (change in pH) (E. coli): approximately 0.1 μg/ml

CC1(C)S[C@@H]2[C@H](NC(=O)[C@H](N)c3ccccc3)C(=O)N2[C@H]1C(=O)O [ampicillin]
concentration of anti-infective to which the Staphylococcus saprophyticus is resistant (change in pH) [1]: up to 50 μg/ml
